{"source": "patent US20240247021A1", "about": "“CRYSTAL FORMS OF KUDING SAPONIN A COMPOUND, PHARMACEUTICAL COMPOSITION AND USE THEREOF” (SHANGHAI KE PHARMACEUTICAL CO., LTD, priority 2021, published 2024)"}
{"assay": "Conditions under which the crystal forms exist stably", "format": "physicochemical"}
{"smiles": "C[C@@H]1O[C@@H](O[C@H]2[C@H](O[C@H]3CC[C@]4(C)[C@H]5C[C@H](O)C6=C7[C@]8(CC[C@](C)(OC8=O)[C@@]7(C)O)CC[C@@]6(C)[C@]5(C)CC[C@H]4C3(C)C)OC[C@H](O)[C@@H]2O[C@@H]2O[C@H](CO)[C@@H](O)[C@H](O)[C@H]2O)[C@H](O)[C@H](O)[C@H]1O", "note": "[crystal form G, Kudinoside A]", "conditions under which the crystal form exists stably": "can only exist stably when the sample is wet"}
{"smiles": "C[C@@H]1O[C@@H](O[C@H]2[C@H](O[C@H]3CC[C@]4(C)[C@H]5C[C@H](O)C6=C7[C@]8(CC[C@](C)(OC8=O)[C@@]7(C)O)CC[C@@]6(C)[C@]5(C)CC[C@H]4C3(C)C)OC[C@H](O)[C@@H]2O[C@@H]2O[C@H](CO)[C@@H](O)[C@H](O)[C@H]2O)[C@H](O)[C@H](O)[C@H]1O", "note": "[crystal form E, Kudinoside A]", "conditions under which the crystal form exists stably": "can only exist stably when the sample is wet"}
{"smiles": "C[C@@H]1O[C@@H](O[C@H]2[C@H](O[C@H]3CC[C@]4(C)[C@H]5C[C@H](O)C6=C7[C@]8(CC[C@](C)(OC8=O)[C@@]7(C)O)CC[C@@]6(C)[C@]5(C)CC[C@H]4C3(C)C)OC[C@H](O)[C@@H]2O[C@@H]2O[C@H](CO)[C@@H](O)[C@H](O)[C@H]2O)[C@H](O)[C@H](O)[C@H]1O", "note": "[crystal form L, Kudinoside A]", "conditions under which the crystal form exists stably": "can only exist stably at high temperature"}
{"smiles": "C[C@@H]1O[C@@H](O[C@H]2[C@H](O[C@H]3CC[C@]4(C)[C@H]5C[C@H](O)C6=C7[C@]8(CC[C@](C)(OC8=O)[C@@]7(C)O)CC[C@@]6(C)[C@]5(C)CC[C@H]4C3(C)C)OC[C@H](O)[C@@H]2O[C@@H]2O[C@H](CO)[C@@H](O)[C@H](O)[C@H]2O)[C@H](O)[C@H](O)[C@H]1O", "note": "[crystal form B, Kudinoside A]", "conditions under which the crystal form exists stably": "can only exist stably at high temperature"}
{"smiles": "C[C@@H]1O[C@@H](O[C@H]2[C@H](O[C@H]3CC[C@]4(C)[C@H]5C[C@H](O)C6=C7[C@]8(CC[C@](C)(OC8=O)[C@@]7(C)O)CC[C@@]6(C)[C@]5(C)CC[C@H]4C3(C)C)OC[C@H](O)[C@@H]2O[C@@H]2O[C@H](CO)[C@@H](O)[C@H](O)[C@H]2O)[C@H](O)[C@H](O)[C@H]1O", "note": "[crystal form I2, Kudinoside A]", "conditions under which the crystal form exists stably": "cannot exist stably"}
{"smiles": "C[C@@H]1O[C@@H](O[C@H]2[C@H](O[C@H]3CC[C@]4(C)[C@H]5C[C@H](O)C6=C7[C@]8(CC[C@](C)(OC8=O)[C@@]7(C)O)CC[C@@]6(C)[C@]5(C)CC[C@H]4C3(C)C)OC[C@H](O)[C@@H]2O[C@@H]2O[C@H](CO)[C@@H](O)[C@H](O)[C@H]2O)[C@H](O)[C@H](O)[C@H]1O", "note": "[crystal form D, Kudinoside A]", "conditions under which the crystal form exists stably": "can only exist stably when the sample is wet"}
